Literature values in patent US20140242195A1, “AUTOMOTIVE SURFACE CONDITIONING SYSTEM” (American Covers, Inc., priority 2013, published 2014).

Conditions: component of the composition

Structure (SMILES)	Vapor Pressure (mmHg)
CCOCCOCCO [CARBITOL, diethylene glycol monoethyl ether]	0.07 mmHg
OCC(O)CO [Glycerin]	0.003 mmHg
